Assay results published in patent US9321791B2, “8-[3-amino-piperidin-1-yl]-xanthines, the preparation thereof and their use as pharmaceutical compositions” (Boehringer Ingelheim International GmbH, priority 2002, dated 2016).

Tested on: rats
Test: Tolerability after oral administration to rats
Type: in vivo
Conditions: 10 mg/kg

CC#CCn1c(N2CCC[C@@H](N)C2)nc2c1c(=O)n(Cc1ncc3ccccc3n1)c(=O)n2C [2(80), 1-[(quinazolin-2-yl)methyl]-3-methyl-7-(2-butyn-1-yl)-8-((R)-3-amino-piperidin-1-yl)-xanthine]
changes in the animals' behaviour: no changes in the animals' behaviour could be detected
